According to patent US11981658B2, “Substituted aminopyridine compounds as EGFR inhibitors” (YUHAN CORPORATION, priority 2021, dated 2024):
Read-outs that look alike come from different tables or passages of the source.

Tests used:
[1] = target: EGFR Del19/T790M/C797S (Homo sapiens, UniProt P00533, C797S/DEL746-750/T790M); experiment: Biochemical EGFR kinase inhibition assay (Lance Ultra TR-FRET), triple mutant del19/T790M/C797S
Procedure: (§1) Biochemical EGFR kinase assays were conducted using Lance Ultra time-resolved fluorescence resonance energy transfer (TR-FRET) technology from Perkin-Elmer. Compounds of the invention were initially diluted to 20 mM in 100% DMSO for storage and made into kinase buffer solution to create a compound concentration ranging from 0.003 μM and 10 μM.
(§2) Each kinase reactions were incubated at room temperature for 1 hour and then stopped by the addition of 4 μL of stop solution (10 mM EDTA). The specific Europium-labeled-anti-phosphopeptide antibody (PerkinElmer, AD0069) diluted in LANCE detection buffer was then added to a final concentration of 2 nM. After 60 minutes incubation at room temperature the LANCE signal was measured on an EnVision Multilabel Reader (Perkin-Elmer). Excitation wavelength was set at 320 nm and emission monitored at 615 nm (donor) and 665 nm (acceptor). The IC50 values were determined using GraphPad prism software (GraphPad Software, Inc., San Diego, CA, USA).

[2] = target: EGFR Del19/C797S (Homo sapiens, UniProt P00533, C797S/DEL746-750); experiment: Biochemical EGFR kinase inhibition assay (Lance Ultra TR-FRET), double mutant del19/C797S
Procedure: as §1, §2

[3] = target: EGFR wildtype (WT) (Homo sapiens, UniProt P00533); experiment: Biochemical EGFR kinase inhibition assay (Lance Ultra TR-FRET), wildtype
Procedure: as §1, §2

[4] = target: EGFR L858R/T790M/C797S (Homo sapiens, UniProt P00533, C797S/L858R/T790M); experiment: Biochemical EGFR kinase inhibition assay (Lance Ultra TR-FRET), triple mutant L858R/T790M/C797S
Procedure: as §1, §2

[5] = Km ATP, read-out: IC50 Del19/T790M/C797S (nM) Km ATP
[6] = Km ATP, read-out: IC50 Del19/C797S (nM) Km ATP
[7] = Km ATP, read-out: IC50 WT (nM) Km ATP
[8] = IC50 Del19/T790M/C797S (nM), 100 μM ATP
[9] = IC50 L858R/T790M/C797S (nM), 100 μM ATP
[10] = IC50 Del19/C797S (nM), 100 μM ATP
[11] = Km ATP, read-out: IC50 L858R/T790M/C797S (nM) Km ATP
[12] = ATP at Km, read-out: IC50 Del19/T790M/C797S (nM), Km ATP
[13] = ATP at Km, read-out: IC50 WT (nM), Km ATP
[14] = ATP at Km, read-out: IC50 Del19/C797S (nM), Km ATP

EGFR L858R/T790M/C797S, sequence (P00533 25-1210 T790M/C797S/L858R): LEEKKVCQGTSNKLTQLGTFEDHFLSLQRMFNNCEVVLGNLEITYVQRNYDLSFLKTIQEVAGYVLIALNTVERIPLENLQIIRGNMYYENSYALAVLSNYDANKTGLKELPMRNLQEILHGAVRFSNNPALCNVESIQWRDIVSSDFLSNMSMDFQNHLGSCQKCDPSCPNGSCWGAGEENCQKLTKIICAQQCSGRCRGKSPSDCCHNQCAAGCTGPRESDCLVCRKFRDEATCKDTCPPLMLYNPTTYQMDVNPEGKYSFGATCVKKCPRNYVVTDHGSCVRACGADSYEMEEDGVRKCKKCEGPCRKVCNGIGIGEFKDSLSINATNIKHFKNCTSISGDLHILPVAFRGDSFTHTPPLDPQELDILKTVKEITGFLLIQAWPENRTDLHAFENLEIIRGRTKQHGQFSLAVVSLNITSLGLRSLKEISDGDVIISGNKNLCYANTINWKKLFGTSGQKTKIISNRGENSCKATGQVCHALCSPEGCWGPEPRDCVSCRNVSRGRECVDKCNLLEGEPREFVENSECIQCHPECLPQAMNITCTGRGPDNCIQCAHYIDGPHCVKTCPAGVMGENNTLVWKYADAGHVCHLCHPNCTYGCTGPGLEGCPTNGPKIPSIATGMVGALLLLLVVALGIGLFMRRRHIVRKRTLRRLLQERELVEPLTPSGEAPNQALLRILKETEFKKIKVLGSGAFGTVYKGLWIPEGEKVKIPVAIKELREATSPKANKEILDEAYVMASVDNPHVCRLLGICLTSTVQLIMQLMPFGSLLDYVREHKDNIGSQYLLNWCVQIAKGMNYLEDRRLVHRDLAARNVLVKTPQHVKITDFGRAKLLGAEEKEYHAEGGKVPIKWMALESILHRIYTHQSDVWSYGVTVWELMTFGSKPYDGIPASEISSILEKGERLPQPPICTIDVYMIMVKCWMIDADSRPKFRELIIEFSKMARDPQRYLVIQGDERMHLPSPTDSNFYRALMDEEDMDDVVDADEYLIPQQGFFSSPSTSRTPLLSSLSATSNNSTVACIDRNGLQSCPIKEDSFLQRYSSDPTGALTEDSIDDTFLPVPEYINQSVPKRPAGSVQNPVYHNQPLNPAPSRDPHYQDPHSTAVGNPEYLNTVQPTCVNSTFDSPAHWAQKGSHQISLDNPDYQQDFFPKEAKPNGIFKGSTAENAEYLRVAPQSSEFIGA
EGFR Del19/C797S, sequence (P00533 with tags, fused parts or gaps DEL746-750/C797S): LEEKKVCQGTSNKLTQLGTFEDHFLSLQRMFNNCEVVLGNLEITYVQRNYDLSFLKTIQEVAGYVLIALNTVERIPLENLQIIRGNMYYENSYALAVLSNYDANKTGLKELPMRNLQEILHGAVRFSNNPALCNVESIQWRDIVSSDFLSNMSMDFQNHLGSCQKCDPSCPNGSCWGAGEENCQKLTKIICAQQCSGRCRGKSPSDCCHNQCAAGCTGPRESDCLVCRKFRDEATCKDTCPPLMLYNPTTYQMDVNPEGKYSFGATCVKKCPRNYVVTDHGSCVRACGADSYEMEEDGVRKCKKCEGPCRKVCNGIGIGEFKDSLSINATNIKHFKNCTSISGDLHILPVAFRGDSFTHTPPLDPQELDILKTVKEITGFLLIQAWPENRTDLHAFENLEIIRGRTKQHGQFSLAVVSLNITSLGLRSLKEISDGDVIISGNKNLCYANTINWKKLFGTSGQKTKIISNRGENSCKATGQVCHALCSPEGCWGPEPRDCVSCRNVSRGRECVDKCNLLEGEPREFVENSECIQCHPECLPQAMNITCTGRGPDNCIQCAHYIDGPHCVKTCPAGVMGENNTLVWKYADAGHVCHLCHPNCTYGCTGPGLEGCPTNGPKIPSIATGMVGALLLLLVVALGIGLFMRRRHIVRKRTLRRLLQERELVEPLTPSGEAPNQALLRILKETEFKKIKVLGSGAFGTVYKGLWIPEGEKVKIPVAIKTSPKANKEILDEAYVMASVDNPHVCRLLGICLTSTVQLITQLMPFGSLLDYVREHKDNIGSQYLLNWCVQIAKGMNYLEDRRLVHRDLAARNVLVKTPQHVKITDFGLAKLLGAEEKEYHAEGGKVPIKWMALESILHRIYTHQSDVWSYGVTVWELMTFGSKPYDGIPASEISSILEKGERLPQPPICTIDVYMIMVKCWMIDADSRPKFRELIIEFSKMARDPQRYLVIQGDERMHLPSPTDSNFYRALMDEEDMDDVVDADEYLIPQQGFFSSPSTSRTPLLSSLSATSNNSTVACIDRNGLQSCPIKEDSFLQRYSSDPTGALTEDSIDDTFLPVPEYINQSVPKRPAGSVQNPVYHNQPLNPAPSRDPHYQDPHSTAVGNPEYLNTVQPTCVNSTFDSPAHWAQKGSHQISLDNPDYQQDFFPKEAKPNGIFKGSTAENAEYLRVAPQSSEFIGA
EGFR wildtype (WT), sequence (P00533 25-1210): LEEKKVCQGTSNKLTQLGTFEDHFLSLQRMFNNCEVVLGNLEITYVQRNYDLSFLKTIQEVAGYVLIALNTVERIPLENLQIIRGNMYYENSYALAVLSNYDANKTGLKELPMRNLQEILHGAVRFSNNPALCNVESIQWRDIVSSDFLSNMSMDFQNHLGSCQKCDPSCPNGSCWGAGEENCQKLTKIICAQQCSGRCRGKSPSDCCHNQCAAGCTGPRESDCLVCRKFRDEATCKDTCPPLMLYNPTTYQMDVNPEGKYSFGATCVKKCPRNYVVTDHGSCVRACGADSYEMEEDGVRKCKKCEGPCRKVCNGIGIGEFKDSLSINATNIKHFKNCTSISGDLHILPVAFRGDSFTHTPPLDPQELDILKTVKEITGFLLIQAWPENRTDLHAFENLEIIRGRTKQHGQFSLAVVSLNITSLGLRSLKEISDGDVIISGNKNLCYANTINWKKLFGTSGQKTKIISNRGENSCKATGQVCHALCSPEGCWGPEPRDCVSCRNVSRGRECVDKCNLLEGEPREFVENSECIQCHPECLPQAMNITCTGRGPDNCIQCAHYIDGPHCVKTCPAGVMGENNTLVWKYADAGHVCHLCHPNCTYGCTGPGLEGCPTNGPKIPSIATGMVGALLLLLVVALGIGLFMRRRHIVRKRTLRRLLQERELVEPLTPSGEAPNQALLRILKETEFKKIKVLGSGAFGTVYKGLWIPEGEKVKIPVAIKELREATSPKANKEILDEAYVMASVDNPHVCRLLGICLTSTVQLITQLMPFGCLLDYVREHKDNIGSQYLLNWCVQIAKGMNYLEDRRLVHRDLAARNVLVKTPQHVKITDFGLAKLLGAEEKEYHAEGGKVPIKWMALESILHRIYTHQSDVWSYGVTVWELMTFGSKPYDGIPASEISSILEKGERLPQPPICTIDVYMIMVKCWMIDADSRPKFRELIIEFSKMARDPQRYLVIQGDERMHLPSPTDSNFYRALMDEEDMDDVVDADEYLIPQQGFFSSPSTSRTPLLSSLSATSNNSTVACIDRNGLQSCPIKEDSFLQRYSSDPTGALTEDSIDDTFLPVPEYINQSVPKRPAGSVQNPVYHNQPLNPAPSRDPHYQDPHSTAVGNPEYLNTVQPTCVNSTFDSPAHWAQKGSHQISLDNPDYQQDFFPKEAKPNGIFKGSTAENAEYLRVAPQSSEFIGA
EGFR Del19/T790M/C797S, sequence (P00533 with tags, fused parts or gaps DEL746-750/T790M/C797S): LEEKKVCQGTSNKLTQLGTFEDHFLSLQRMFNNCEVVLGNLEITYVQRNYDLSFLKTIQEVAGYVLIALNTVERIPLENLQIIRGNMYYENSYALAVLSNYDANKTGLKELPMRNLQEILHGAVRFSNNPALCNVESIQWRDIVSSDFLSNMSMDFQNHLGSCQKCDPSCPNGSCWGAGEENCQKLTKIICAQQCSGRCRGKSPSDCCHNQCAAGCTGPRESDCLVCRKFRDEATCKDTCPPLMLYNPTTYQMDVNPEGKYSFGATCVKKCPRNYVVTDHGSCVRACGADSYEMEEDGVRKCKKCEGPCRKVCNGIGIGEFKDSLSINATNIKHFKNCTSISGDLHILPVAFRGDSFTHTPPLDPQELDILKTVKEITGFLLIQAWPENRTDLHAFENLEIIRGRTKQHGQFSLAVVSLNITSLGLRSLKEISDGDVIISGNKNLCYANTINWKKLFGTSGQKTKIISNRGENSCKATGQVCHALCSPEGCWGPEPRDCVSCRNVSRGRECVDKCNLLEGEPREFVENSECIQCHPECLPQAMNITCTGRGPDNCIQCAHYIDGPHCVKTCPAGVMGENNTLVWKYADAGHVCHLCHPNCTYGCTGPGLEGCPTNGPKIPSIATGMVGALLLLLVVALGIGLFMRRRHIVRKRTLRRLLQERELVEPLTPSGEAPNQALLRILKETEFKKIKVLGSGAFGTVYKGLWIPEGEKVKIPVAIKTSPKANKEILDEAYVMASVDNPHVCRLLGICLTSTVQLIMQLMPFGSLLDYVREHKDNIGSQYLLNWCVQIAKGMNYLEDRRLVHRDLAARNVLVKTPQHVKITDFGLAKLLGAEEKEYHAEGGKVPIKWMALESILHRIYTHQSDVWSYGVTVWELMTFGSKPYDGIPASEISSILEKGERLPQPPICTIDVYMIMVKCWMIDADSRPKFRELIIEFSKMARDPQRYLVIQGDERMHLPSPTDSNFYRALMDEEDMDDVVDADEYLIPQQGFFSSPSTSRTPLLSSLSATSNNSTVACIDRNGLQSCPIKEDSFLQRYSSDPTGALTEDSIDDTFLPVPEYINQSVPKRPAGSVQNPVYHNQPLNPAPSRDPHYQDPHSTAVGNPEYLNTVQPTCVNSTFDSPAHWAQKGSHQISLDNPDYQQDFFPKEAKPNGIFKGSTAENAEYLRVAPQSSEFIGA

SMILES	IC50 [1, 5]	IC50 [2, 6]	IC50 [3, 7]	IC50 [1, 8]	IC50 [4, 9]	IC50 [2, 10]	IC50 ([3]; IC50 WT (nM), 100 μM ATP)	IC50 [4, 11]	IC50 [1, 12]	IC50 [3, 13]	IC50 [2, 14]
CCS(=O)(=O)N1CCN(c2cc(Nc3ccnc(-c4cnn(S(=O)(=O)C5CC5)c4)n3)ncc2C#Cc2cnn(C)c2)CC1 [Example 3, 2-(1-(Cyclopropylsulfonyl)-1H-pyrazol-4-yl)-N-(4-(4-(ethylsulfonyl)piperazin-1-yl)-5-((1-methyl-1H-pyrazol-4-yl)ethynyl)pyridin-2-yl)pyrimidin-4-amine]	6.6 nM	240 nM	3830 nM	–	–	–	–	–	–	–	–
O=S(=O)(C1CC1)n1cc(-c2nccc(Nc3cc(N4CCN(CCO)CC4)c(C#Cc4cnn(CCF)c4)cn3)n2)cn1 [Example 16, 2-(4-(2-((2-(1-(Cyclopropylsulfonyl)-1H-pyrazol-4-yl)pyrimidin-4-yl)amino)-5-((1-(2-fluoroethyl)-1H-pyrazol-4-yl)ethynyl)pyridin-4-yl)piperazin-1-yl)ethan-1-ol]	4.5 nM	68.6 nM	145 nM	3.3 nM	10.1 nM	165 nM	> 10000 nM	–	–	–	–
CC(C)Nc1cc(Nc2ccnc(-c3cnn(S(=O)(=O)C4CC4)c3)n2)ncc1C#Cc1cnn(C)c1 [Example 18, N^2-(2-(1-(Cyclopropylsulfonyl)-1H-pyrazol-4-yl)pyrimidin-4-yl)-N^4-isopropyl-5-((1-methyl-1H-pyrazol-4-yl)ethynyl)pyridine-2,4-diamine]	2.2 nM	35.5 nM	213 nM	1.6 nM	1.1 nM	47.3 nM	> 10000 nM	3.3 nM	–	–	–
CC(C)Nc1cc(Nc2ccnc(-c3cnn(S(=O)(=O)C4CC4)c3)n2)ncc1C#Cc1cnn(C(C)C)c1 [Example 19, N^2-(2-(1-(Cyclopropylsulfonyl)-1H-pyrazol-4-yl)pyrimidin-4-yl)-N^4-isopropyl-5-((1-isopropyl-1H-pyrazol-4-yl)ethynyl)pyridine-2,4-diamine]	4.4 nM	41.8 nM	1680 nM	5.4 nM	3.7 nM	140 nM	> 10000 nM	2.3 nM	–	–	–
CC(C)Nc1cc(Nc2ccnc(-c3cnn(S(=O)(=O)C4CC4)c3)n2)ncc1C#Cc1cccnc1 [Example 21, N^2-(2-(1-(Cyclopropylsulfonyl)-1H-pyrazol-4-yl)pyrimidin-4-yl)-N^4-isopropyl-5-(pyridin-3-ylethynyl)pyridine-2,4-diamine]	0.8 nM	34.3 nM	374 nM	–	–	–	–	1.8 nM	–	–	–
COCCC#Cc1cnc(Nc2ccnc(-c3cnn(S(=O)(=O)C4CC4)c3)n2)cc1NC(C)C [Example 22, N^2-(2-(1-(Cyclopropylsulfonyl)-1H-pyrazol-4-yl)pyrimidin-4-yl)-N^4-isopropyl-5-(4-methoxybut-1-yn-1-yl)pyridine-2,4-diamine]	2.8 nM	122 nM	630 nM	–	–	–	–	5.4 nM	–	–	–
CCC(C)Nc1cc(Nc2ccnc(-c3cnn(S(=O)(=O)C4CC4)c3)n2)ncc1C#Cc1cnn(C)c1 (stereo not shown) [Example 24, N^4-(sec-Butyl)-N^2-(2-(1-(cyclopropylsulfonyl)-1H-pyrazol-4-yl)pyrimidin-4-yl)-5-((1-methyl-1H-pyrazol-4-yl)ethynyl)pyridine-2,4-diamine]	2.7 nM	32.9 nM	462 nM	–	–	–	–	4.4 nM	–	–	–
CCC(C)Nc1cc(Nc2ccnc(-c3cnn(S(=O)(=O)C4CC4)c3)n2)ncc1C#Cc1cnn(C(C)C)c1 (stereo not shown) [Example 25, N^4-(sec-Butyl)-N^2-(2-(1-(cyclopropylsulfonyl)-1H-pyrazol-4-yl)pyrimidin-4-yl)-5-((1-isopropyl-1H-pyrazol-4-yl)ethynyl)pyridine-2,4-diamine]	6.9 nM	105 nM	915 nM	–	–	–	–	6.5 nM	–	–	–
CCC(C)Nc1cc(Nc2ccnc(-c3cnn(S(=O)(=O)C4CC4)c3)n2)ncc1C#Cc1cnn(CCF)c1 (stereo not shown) [Example 26, N^4-(sec-Butyl)-N^2-(2-(1-(cyclopropylsulfonyl)-1H-pyrazol-4-yl)pyrimidin-4-yl)-5-((1-(2-fluoroethyl)-1H-pyrazol-4-yl)ethynyl)pyridine-2,4-diamine]	3.1 nM	58.1 nM	545 nM	–	–	–	–	3.6 nM	–	–	–
CN(CCO)c1cc(Nc2ccnc(-c3cnn(S(=O)(=O)C4CC4)c3)n2)ncc1C#Cc1cnn(C)c1 [Example 37, 2-((2-((2-(1-(Cyclopropylsulfonyl)-1H-pyrazol-4-yl)pyrimidin-4-yl)amino)-5-((1-methyl-1H-pyrazol-4-yl)ethynyl)pyridin-4-yl)(methyl)amino)ethan-1-ol]	20.2 nM	–	435 nM	–	–	870 nM	> 10000 nM	–	–	–	–
CN(CCO)c1cc(Nc2ccnc(-c3cnn(S(=O)(=O)C4CC4)c3)n2)ncc1C#Cc1cnn(CCF)c1 [Example 38, 2-((2-((2-(1-(Cyclopropylsulfonyl)-1H-pyrazol-4-yl)pyrimidin-4-yl)amino)-5-((1-(2-fluoroethyl)-1H-pyrazol-4-yl)ethynyl)pyridin-4-yl)(methyl)amino)ethan-1-ol]	17.6 nM	–	368 nM	–	–	464 nM	> 10000 nM	–	–	–	–
CC(C)Oc1cc(Nc2ccnc(-c3cnn(S(=O)(=O)C4CC4)c3)n2)ncc1C#Cc1cnn(C)c1 [Example 54, 2-(1-(Cyclopropylsulfonyl)-1H-pyrazol-4-yl)-N-(4-isopropoxy-5-((1-methyl-1H-pyrazol-4-yl)ethynyl)pyridin-2-yl)pyrimidin-4-amine]	6.1 nM	138 nM	2580 nM	–	–	–	–	13.2 nM	–	–	–
CC(C)Oc1cc(Nc2ccnc(-c3cnn(S(=O)(=O)C4CC4)c3)n2)ncc1C#Cc1cnn(CCF)c1 [Example 55, 2-(1-(Cyclopropylsulfonyl)-1H-pyrazol-4-yl)-N-(5-((1-(2-fluoroethyl)-1H-pyrazol-4-yl)ethynyl)-4-isopropoxypyridin-2-yl)pyrimidin-4-amine]	7 nM	398 nM	2630 nM	–	–	–	–	19.1 nM	–	–	–
CCC(C)Oc1cc(Nc2ccnc(-c3cnn(S(=O)(=O)C4CC4)c3)n2)ncc1C#Cc1cnn(C)c1 (stereo not shown) [Example 56, N-(4-(sec-Butoxy)-5-((1-methyl-1H-pyrazol-4-yl)ethynyl)pyridin-2-yl)-2-(1-(cyclopropylsulfonyl)-1H-pyrazol-4-yl)pyrimidin-4-amine]	7.6 nM	291 nM	> 10000 nM	–	–	–	–	24.2 nM	–	–	–
CCC(C)Oc1cc(Nc2ccnc(-c3cnn(S(=O)(=O)C4CC4)c3)n2)ncc1C#Cc1cnn(C(C)C)c1 (stereo not shown) [Example 57, N-(4-(sec-Butoxy)-5-((1-isopropyl-1H-pyrazol-4-yl)ethynyl)pyridin-2-yl)-2-(1-(cyclopropylsulfonyl)-1H-pyrazol-4-yl)pyrimidin-4-amine]	13.9 nM	493 nM	–	–	–	–	–	26.1 nM	–	–	–
CC(C)Nc1cc(Nc2ccnc(-c3cnn(S(=O)(=O)C4CC4)c3)n2)ncc1C#CC(C)(C)O [Example 204, 4-(6-((2-(1-(Cyclopropylsulfonyl)-1H-pyrazol-4-yl)pyrimidin-4-yl)amino)-4-(isopropylamino)pyridin-3-yl)-2-methylbut-3-yn-2-ol]	–	–	–	–	–	187 nM	> 10000 nM	–	22.7 nM	264 nM	–
CC(C)Nc1cc(Nc2ccnc(-c3cnn(S(=O)(=O)C4CC4)c3)n2)ncc1C#Cc1csc(C2CC2)n1 [Example 205, N^2-(2-(1-(Cyclopropylsulfonyl)-1H-pyrazol-4-yl)pyrimidin-4-yl)-5-((2-cyclopropylthiazol-4-yl)ethynyl)-N^4-isopropylpyridine-2,4-diamine]	–	–	–	–	–	–	–	–	18.3 nM	587 nM	265 nM
CC(C)Nc1cc(Nc2ccnc(-c3cnn(S(=O)(=O)C4CC4)c3)n2)ncc1C#CC1CCOCC1 [Example 206, N^2-(2-(1-(Cyclopropylsulfonyl)-1H-pyrazol-4-yl)pyrimidin-4-yl)-N^4-isopropyl-5-((tetrahydro-2H-pyran-4-yl)ethynyl)pyridine-2,4-diamine]	–	–	–	–	–	–	–	–	3.5 nM	201 nM	69.1 nM
CC(C)n1cc(C#Cc2cnc(Nc3ccnc(-c4cnn(S(=O)(=O)C5CC5)c4)n3)cc2-c2cnn(C3CC3)c2)cn1 [Example 236, N-(4-(1-cyclopropyl-1H-pyrazol-4-yl)-5-((1-isopropyl-1H-pyrazol-4-yl)ethynyl)pyridin-2-yl)-2-(1-(cyclopropylsulfonyl)-1H-pyrazol-4-yl)pyrimidin-4-amine]	11.3 nM	359 nM	–	–	–	–	–	45.3 nM	–	–	–
